33 compounds from patent publication US11964960B2 (Cornell University, priority 2018, dated 2024) can be followed below.

T1 sequence (O95136 whole entry, species assumed): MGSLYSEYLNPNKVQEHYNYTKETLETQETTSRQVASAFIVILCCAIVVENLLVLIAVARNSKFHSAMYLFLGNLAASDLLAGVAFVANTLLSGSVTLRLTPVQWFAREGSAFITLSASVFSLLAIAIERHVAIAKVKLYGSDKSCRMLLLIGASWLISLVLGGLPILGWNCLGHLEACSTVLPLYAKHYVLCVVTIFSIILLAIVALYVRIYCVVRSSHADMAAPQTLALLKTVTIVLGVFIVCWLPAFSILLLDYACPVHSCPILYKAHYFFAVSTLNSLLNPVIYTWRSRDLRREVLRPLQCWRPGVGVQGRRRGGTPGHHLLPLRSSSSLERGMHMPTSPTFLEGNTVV
Chain of S1PR2 (O95136 whole entry, species assumed): as above

The first assay concerns the target T1, S1P2 (Homo sapiens, UniProt O95136).
T1 construct: Flag; expressed in transfected cells; host or cells: Chinese hamster ovary (CHO) cells, doxycycline-inducible (CHO-S1P2-FL / CHO-S1PR2 FL)
As to the kind of experiment: GLISA RhoA activation - antagonist assay. In kind it is cell-based. As to conditions: 1 μM compound, CHO-S1P2-FL cells. How it is done: GLISA RhoA Activation—Antagonist Assay
GLISA assays were performed using RhoA (BK124) activation kit purchased from Cytoskeleton Inc., Denver, CO Doxycycline-inducible Flag-tag S1P2 expressing Chinese hamster ovary (CHO) cells (CHO-S1P2-FL) were seeded in a 6-well plate, 1.5×10^5 cells per well. Cells were stimulated with […] of Doxycycline to induce S1P2 expression in serum free IMDM media with 0.1% BSA/PBS. Following day, cells were stimulated with the compounds described herein (1 nM-10 μM) or 1 μM JTE-013 for 1 hour at 37° C. Following compound incubation, cells were washed with PBS×3 and induced with 100 nM […] for 5 min. […] Protein concentration was examined using GLISA—Precision Red Advanced Protein assay reagent as described in assay manual. Lysates were immobilized on GTP-bound capture plate and GLISA assay was performed based on manufacture recommendations as reported previously.
For the compound `Cc1cc(C(=O)Cn2cc(Br)ccc2=O)c(C)n1Cc1ccccc1` [Compound 1, 1-(2-(1-benzyl-2,5-dimethyl-1H-pyrrol-3-yl)-2-oxoethyl)-5-bromopyridin-2(1H)-one], the inhibition at 1 µM was determined as 87%.
On the same count and under the same terms, next, `COc1ccc(Cn2c(C)cc(C(=O)C(C)n3cc(Br)ccc3=O)c2C)cc1` (centres unmarked) [Example 61, 5-Bromo-1-(1-(1-(4-methoxybenzyl)-2,5-dimethyl-1H-pyrrol-3-yl)-1-oxopropan-2-yl)pyridin-2(1H)-one]: 18%; `Cc1cc(C(=O)C(C)n2cc(Br)ccc2=O)c(C)n1Cc1cccc(F)c1` (centres unmarked) [Example 62, 5-Bromo-1-(1-(1-(3-fluorobenzyl)-2,5-dimethyl-1H-pyrrol-3-yl)-1-oxopropan-2-yl)pyridin-2(1H)-one]: 11%.
`Cc1cccc(Cn2c(C)cc(C(=O)C(C)n3cc(Br)ccc3=O)c2C)c1` (centres unmarked) [Example 63, 5-Bromo-1-(1-(2,5-dimethyl-1-(3-methylbenzyl)-1H-pyrrol-3-yl)-1-oxopropan-2-yl)pyridin-2(1H)-one] showed an inhibition at 1 µM of 17%.
In the case of `Cc1ccccc1Cn1c(C)cc(C(=O)C(C)n2cc(Br)ccc2=O)c1C` (centres unmarked) [Example 64, 5-Bromo-1-(1-(2,5-dimethyl-1-(2-methylbenzyl)-1H-pyrrol-3-yl)-1-oxopropan-2-yl)pyridin-2(1H)-one], the inhibition at 1 µM is below 10%.
Regarding `Cc1ccc(Cn2c(C)cc(C(=O)C(C)n3cc(Br)ccc3=O)c2C)cc1` (centres unmarked) [Example 65, 5-Bromo-1-(1-(2,5-dimethyl-1-(4-methylbenzyl)-1H-pyrrol-3-yl)-1-oxopropan-2-yl)pyridin-2(1H)-one], the inhibition at 1 µM stood at 11%.
In turn, `O=C(Cn1cc(Br)ccc1=O)N1CCC(Cc2ccc(F)cc2)C1` (centres unmarked) [Example 66, 5-Bromo-1-(2-(3-(4-fluorobenzyl)pyrrolidin-1-yl)-2-oxoethyl)pyridin-2(1H)-one] returned an inhibition at 1 µM below 10%.
`O=C(Cn1cc(Br)ccc1=O)N1CCC(c2ccc(F)cc2)C1` (centres unmarked) [Example 67, 5-Bromo-1-(2-(3-(4-fluorophenyl)pyrrolidin-1-yl)-2-oxoethyl)pyridin-2(1H)-one] came in with an inhibition at 1 µM of 42%.
Compound `Cc1cc(C(=O)Cn2cc(Br)ccc2=O)nn1Cc1ccc(F)cc1` [Example 68, 5-Bromo-1-(2-(1-(4-fluorobenzyl)-5-methyl-1H-pyrazol-3-yl)-2-oxoethyl)pyridin-2(1H)-one] returned an inhibition at 1 µM of 18%.
Compound `COC(=O)c1ccc(=O)n(CC(=O)c2cc(C)n(Cc3ccccc3)c2C)c1` [Example 90] gave an inhibition at 1 µM below 10%.
`Cc1cc(C(=O)Cn2cc(C#N)ccc2=O)c(C)n1CCc1ccccc1` [Example 91, 1-(2-(2,5-Dimethyl-1-phenethyl-1H-pyrrol-3-yl)-2-oxoethyl)-6-oxo-1,6-dihydropyridine-3-carbonitrile] had an inhibition at 1 µM of 12%.
Still for that read-out and setting: then `Cc1cc(C(=O)Cn2cc(C#N)ccc2=O)c(C)n1C(C)c1ccccc1` (centres unmarked) [Example 92, 1-(2-(2,5-Dimethyl-1-(1-phenylethyl)-1H-pyrrol-3-yl)-2-oxoethyl)-6-oxo-1,6-dihydropyridine-3-carbonitrile], with 31%; and `Cc1cc(C(=O)Cn2cc(C#N)ccc2=O)c(C)n1Cc1ccc2c(c1)OCO2` [Example 93, 1-(2-(1-(Benzo[d][1,3]dioxol-5-ylmethyl)-2,5-dimethyl-1H-pyrrol-3-yl)-2-oxoethyl)-6-oxo-1,6-dihydropyridine-3-carbonitrile], with 10%.

The assay is the same for the next values; noted with them: CHO-S1P2-FL cells, 1 hour compound incubation, then for 5 min.
As to `Cc1cc(C(=O)Cn2cc(Br)ccc2=O)c(C)n1Cc1ccccc1` [Compound 1, 1-(2-(1-benzyl-2,5-dimethyl-1H-pyrrol-3-yl)-2-oxoethyl)-5-bromopyridin-2(1H)-one], it took 52 nM to reach half-maximal inhibition (IC50).
As for `Cc1c(C(=O)Cn2cc(C#N)cc(C#N)c2=O)cnn1Cc1ccccc1` [Example 69, 1-(2-(1-Benzyl-5-methyl-1H-pyrazol-4-yl)-2-oxoethyl)-2-oxo-1,2-dihydropyridine-3,5-dicarbonitrile], half-maximal inhibition (IC50) required 50 nM.
The compound `Cc1c(C(=O)Cn2cc(Br)ncc2=O)cnn1Cc1ccccc1` [Example 70, 1-(2-(1-Benzyl-5-methyl-1H-pyrazol-4-yl)-2-oxoethyl)-5-bromopyrazin-2(1H)-one] returned an IC50 of 181 nM.
Still for that read-out and setting: next, `Cc1c(C(=O)Cn2c(F)c(Br)ccc2=O)cnn1Cc1ccccc1` [Example 71, 1-(2-(1-Benzyl-5-methyl-1H-pyrazol-4-yl)-2-oxoethyl)-5-bromo-6-fluoropyridin-2(1H)-one]: 22 nM.
Regarding `Cc1c(C(=O)Cn2cc(Br)c(F)cc2=O)cnn1Cc1ccccc1` [Example 72, 1-(2-(1-Benzyl-5-methyl-1H-pyrazol-4-yl)-2-oxoethyl)-5-bromo-4-fluoropyridin-2(1H)-one], the IC50 is 91 nM.
As for `C#Cc1ccc(=O)n(C(C)C(=O)c2cnn(Cc3ccccc3)c2C)n1` (centres unmarked) [Example 73, 2-(1-(1-Benzyl-5-methyl-1H-pyrazol-4-yl)-1-oxopropan-2-yl)-6-ethynylpyridazin-3(2H)-one], the half-maximal inhibitory concentration (IC50) stood at 59 nM.
`C#Cc1ccc(=O)n(C(C)C(=O)c2cnn(Cc3ccc(F)cc3)c2C)n1` (centres unmarked) [Example 74, 6-Ethynyl-2-(1-(1-(4-fluorobenzyl)-5-methyl-1H-pyrazol-4-yl)-1-oxopropan-2-yl)pyridazin-3(2H)-one] returned an IC50 of 46 nM.
`C#Cc1ccc(=O)n(C(C)C(=O)c2cnn(Cc3ccc(F)cc3F)c2C)n1` (centres unmarked) [Example 75, 2-(1-(1-(2,4-Difluorobenzyl)-5-methyl-1H-pyrazol-4-yl)-1-oxopropan-2-yl)-6-ethynylpyridazin-3(2H)-one]: inhibition was half-maximal at 58 nM (IC50).
`C=Cc1ccc(=O)n(C(C)C(=O)c2cnn(Cc3ccccc3)c2C)n1` (centres unmarked) [Example 76, 2-(1-(1-Benzyl-5-methyl-1H-pyrazol-4-yl)-1-oxopropan-2-yl)-6-vinylpyridazin-3(2H)-one] came in with an IC50 of 130 nM.
With `C#Cc1ccc(=O)n(C(C)C(=O)c2cnn(Cc3ccccn3)c2C)c1` (centres unmarked) [Example 77], the IC50 was found to be 100 nM.
In turn, `C=Cc1ccc(=O)n(C(C)C(=O)c2cnn(Cc3ccccn3)c2C)c1` (centres unmarked) [Example 79, 1-(1-(5-Methyl-1-(pyridin-2-ylmethyl)-1H-pyrazol-4-yl)-1-oxopropan-2-yl)-5-vinylpyridin-2(1H)-one] registered an IC50 of 50 nM.
`C=Cc1ccc(=O)n(CC(=O)c2cnn(Cc3ccccn3)c2CC)c1` [Example 80, 1-(2-(5-Ethyl-1-(pyridin-2-ylmethyl)-1H-pyrazol-4-yl)-2-oxoethyl)-5-vinylpyridin-2(1H)-one] registered an IC50 of 97 nM.
For the compound `C=C(C)c1ccc(=O)n(CC(=O)c2cnn(Cc3ccccc3)c2C)c1` [Example 81, 1-(2-(1-Benzyl-5-methyl-1H-pyrazol-4-yl)-2-oxoethyl)-5-(prop-1-en-2-yl)pyridin-2(1H)-one], the half-inhibitory concentration (IC50) was 181 nM.
`C=Cc1ccc(=O)n(CC(=O)c2cnn(Cc3ccccc3)c2C(F)(F)F)c1` [Example 82, 1-(2-(1-Benzyl-5-(trifluoromethyl)-1H-pyrazol-4-yl)-2-oxoethyl)-5-vinylpyridin-2(1H)-one]: it took 74 nM to reach half-maximal inhibition (IC50).
The compound `C=C(F)c1ccc(=O)n(CC(=O)c2cnn(Cc3ccccc3)c2C)c1` [Example 83] showed a 50% inhibitory concentration (IC50) of 82 nM.
Compound `C=C(c1ccc(=O)n(CC(=O)c2cnn(Cc3ccccc3)c2C)c1)C(F)(F)F` [Example 84, 1-(2-(1-Benzyl-5-methyl-1H-pyrazol-4-yl)-2-oxoethyl)-5-(3,3,3-trifluoroprop-1-en-2-yl)pyridin-2(1H)-one] gave an IC50 of 43 nM.
For `C=Cc1ccc(=O)n(CC(=O)c2cnn(Cc3ccccc3)c2CC)c1` [Example 85, 1-(2-(1-Benzyl-5-ethyl-1H-pyrazol-4-yl)-2-oxoethyl)-5-vinylpyridin-2(1H)-one], it took 108 nM to reach half-maximal inhibition (IC50).
For `C=Cc1ccc(=O)n(CC(=O)c2c(C)nn(Cc3ccccc3)c2C)c1` [Example 86, 1-(2-(1-Benzyl-3,5-dimethyl-1H-pyrazol-4-yl)-2-oxoethyl)-5-vinylpyridin-2(1H)-one], the IC50 stood at 92 nM.
The compound `C=Cc1ccc(=O)n(CC(=O)c2cnn(Cc3ccccc3)c2C(F)F)c1` [Example 87, 1-(2-(1-Benzyl-5-(difluoromethyl)-1H-pyrazol-4-yl)-2-oxoethyl)-5-vinylpyridin-2(1H)-one] came in with an IC50 of 107 nM.
As for `C#Cc1ccc(=O)n(CC(=O)c2nnn(Cc3ccccc3)c2C)c1` [Example 88, 1-(2-(1-Benzyl-5-methyl-1H-1,2,3-triazol-4-yl)-2-oxoethyl)-5-ethynylpyridin-2(1H)-one], the IC50 is 72 nM.
On the same count and under the same terms, next, `C=Cc1ccc(=O)n(CC(=O)c2nnn(Cc3ccccc3)c2C)c1` [Example 89, 1-(2-(1-Benzyl-5-methyl-1H-1,2,3-triazol-4-yl)-2-oxoethyl)-5-vinylpyridin-2(1H)-one]: 65 nM.

The next assay addresses S1PR2 (Homo sapiens, UniProt O95136). As to the kind of experiment: FLIPR calcium activation - antagonist assay. Type of assay: cell-based. Also on record: Flag; expressed in transfected cells; host or cells: Chinese hamster ovary (CHO) cells, doxycycline-inducible (CHO-S1P2-FL / CHO-S1PR2 FL). To be noted: CHO-S1PR2 FL cells, 1 hour compound incubation. How it is done:
FLIPR Calcium Activation—Antagonist Assay
An assay was performed using Fluo-4 NW Calcium activation kit (#F36206) purchased from Molecular Probes/Life Technologies, Grand Island, NY. Calcium assay was performed according to the manufacturer's instructions. Briefly, CHO-S1PR2 FL cells (5×10^4 cells (for 384 well plate) or 7.5×10^4 cells (for 96 well plate)) were seeded 24 hours prior to experiment in serum free IMDM media supplemented with 0.1% fatty acid free BSA/PBS (SFM). After starvation, cells were stimulated with the compounds described herein (1 nM-10 μM) for 1 hour in SFM at room temperature. Cells were then washed with PBS and prepared for Calcium induction assay as instructed in Fluo-4 NW Calcium activation kit protocol. For calcium induction, 100 nM […] or 1 μM ATP were added in ligand plate places in the Hamamatsu FDSS6000 drug screening system. Ligand was added in 15 seconds intervals for 15 min and signal ratio of […] was measured using the Hamamatsu FDSS6000 instrument.
Consider `Cc1cc(C(=O)Cn2cc(Br)ccc2=O)c(C)n1Cc1ccccc1` [Compound 1, 1-(2-(1-benzyl-2,5-dimethyl-1H-pyrrol-3-yl)-2-oxoethyl)-5-bromopyridin-2(1H)-one], for which the IC50 is 58 nM.

The inhibition is how much of the control response was suppressed. One may read the IC50 as the midpoint of a concentration-inhibition curve.
